The values that follow come from PubChem BioAssay (NCI).

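Values below derive from 48-hour exposures of cells grown in 96-well plates, with endpoints linearly interpolated between the two concentrations bracketing the appropriate inhibition level. Abbreviation: GI50, concentration required for 50% inhibition of growth. Definition used: TGI = concentration required for complete inhibition of growth.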

Holding throughout (test): NCI anticancer screen, dose series, 48 h
The test system of assay [1] is CCRF-CEM leukemia.
In assay [2] the test system is COLO 205 colon.
Assay [3] deals with HOP-62 NSCLC.
Assay [4] has as its system HS 578T breast.
For assay [5], the system named is M14 melanoma.
Assay [6] deals with MDA-MB-435.
For assay [7], the system named is NCI-H522 lung.
The subject of assay [8] is NCI/ADR-RES ovarian.
Assay [9] concerns RPMI-8226 leukemia.
Assay [10] relates to SNB-19 CNS.

With `CCN(C(=O)CN1CCN(c2cc3c(cc2F)c(=O)c(C(=O)O)cn3CC)CC1)c1nc(-c2ccccc2)cs1`, the GI50 in assay [1] was 0.427 µM; in assay [2], 0.226 µM; in assay [3], 0.345 µM; in assay [4] it was 0.842 µM; in assay [5], 0.363 µM; in assay [6], 0.306 µM. Besides, the GI50 is 0.259 µM in [7], 0.331 µM in [8], 0.344 µM in [9] and 0.451 µM in assay [10]. The TGI in [1] is over 100 µM; in assay [2], 0.568 µM; in assay [3], over 100 µM; in assay [4], over 100 µM; in [5], over 100 µM; in [6], over 100 µM. For the same molecule, the TGI in assay [7] is 0.813 µM; in assay [8], over 100 µM; in assay [9] it was over 100 µM; in [10], over 100 µM.

As for `O=C(Nc1cnc(C(F)(F)F)cn1)c1cc(Cl)ccc1O`, the GI50 is 0.406 µM in assay [1]; 1.54 µM in assay [2]; 0.266 µM in assay [3]; 0.335 µM in assay [4]; 0.306 µM in assay [5]; 0.318 µM in assay [6]. In addition, the GI50 was 0.178 µM in assay [7], 0.279 µM in [8], 0.273 µM in assay [9] and 0.403 µM in assay [10]. The TGI is over 100 µM in [1]; 3.14 µM in assay [2]; 2.35 µM in assay [3]; 26.4 µM in [4]; 2.46 µM in assay [5]; 3.23 µM in [6]. For the same molecule, the TGI in [7] is 0.768 µM; in assay [8], 13.6 µM; in assay [9], 2.75 µM; in [10] it was over 100 µM.

`CCOC(=O)C1=C(C)N2C(=NC3=C(CCC/C3=C\c3ccc(Cl)cc3)C2c2ccc(Cl)cc2)S1` (centres undefined): the GI50 in assay [1] was 2.59 µM; in assay [2], 2.44 µM; in [3], 2.55 µM; in [4], 5.33 µM; in assay [6] it was 2.93 µM; in assay [7], 3.84 µM. Besides, the GI50 in assay [8] was 2.56 µM; in assay [9], 1.22 µM; in [10], 3.35 µM. Also, the TGI in assay [1] was 7.87 µM; in assay [2] it was 4.65 µM; in assay [3], 5.38 µM; in assay [4] it was over 100 µM; in assay [6], 14.2 µM; in assay [7], 17.8 µM. The TGI in assay [8] is 7.04 µM; in [9], 4.04 µM; in [10] it was over 100 µM.

For `CN(c1ccc(C#N)c(Cl)c1)C1CCC(NC(=O)c2ccc(N3CCN(C4CN(c5ccc6c(c5)C(=O)N(C5CCC(=O)NC5=O)C6=O)C4)CC3)cc2)CC1` (centres undefined), the GI50 in assay [1] was over 100 µM; in assay [2] it was over 100 µM; in assay [3], over 100 µM; in assay [4], over 100 µM; in assay [5], 21.7 µM; in assay [6], over 100 µM. In addition, the GI50 in assay [7], in assay [8], in [9] and in [10] was over 100 µM each time. The TGI in assay [1] is over 100 µM; in assay [2], over 100 µM; in assay [3], over 100 µM; in assay [4], over 100 µM; in assay [5], 64.3 µM; in [6], over 100 µM. For the same molecule, the TGI in [7], in [8], in assay [9] and in assay [10] was over 100 µM throughout.

Take `CC1(C)CC2=C(Sc3ccccc3N2)C(=O)C1C(=O)C(=O)Nc1cc(Cl)ccc1Cl` (centres undefined): the TGI in [1], in [2], in assay [4], in assay [5], in [6] and in assay [7] was over 100 µM in each case. Further, the TGI in [8], in [9] and in assay [10] was over 100 µM throughout.

With `COc1ccc(Oc2ccccc2NC(=O)CNC(=O)c2cccc3ccccc23)cc1`, the GI50 is 0.904 µM in [1]; 0.64 µM in assay [2]; 0.717 µM in assay [3]; 1.71 µM in assay [4]; 0.545 µM in [5]; 0.193 µM in assay [7]. Further, the GI50 in assay [8] is 0.427 µM; in assay [9], 1.13 µM; in assay [10] it was 1.24 µM. The TGI is over 25 µM in assay [1]; 2.04 µM in [2]; over 25 µM in [3]; over 25 µM in assay [4]; over 25 µM in assay [5]; over 25 µM in assay [7]. Moreover, the TGI was over 25 µM in assay [8], 8.45 µM in [9] and over 25 µM in [10].

As for `O=C(Nc1ccccc1Cl)c1cccc(NC2=C(Cl)C(=O)N(Cc3ccccc3)C2=O)c1`, the GI50 in assay [2] is 51.2 µM; in assay [4], 30.2 µM; in assay [5], 9.32 µM; in [6] it was 3.05 µM; in [7] it was 7.72 µM; in assay [8] it was 46.4 µM. The GI50 is 3.1 µM in [9] and 60.5 µM in [10]. Besides, the TGI in assay [2] was over 100 µM; in [4] it was over 100 µM; in [5], 29.5 µM; in assay [6], 10.3 µM; in assay [7], 31.1 µM; in assay [8] it was over 100 µM. The TGI in assay [9] was 20.6 µM; in assay [10] it was over 100 µM.

Take `CN1CCN(c2cc3nc4ccccc4n(-c4ccc(Cl)cc4)c-3cc2=N)CC1`: the GI50 in assay [2] is over 100 µM; in [3] it was 23.3 µM; in [4], 20.7 µM; in assay [5], 21.4 µM; in assay [6], 17.5 µM; in [7], 21.5 µM. Also, the GI50 in assay [8] is 32.1 µM; in assay [9], 12.1 µM; in [10], over 100 µM. The TGI was over 100 µM in assay [2]; 65 µM in assay [3]; 95.7 µM in assay [4]; 43.8 µM in assay [5]; 32.6 µM in assay [6]; 52.6 µM in [7]. In addition, the TGI in [8] was over 100 µM; in [9], 35.1 µM; in [10] it was over 100 µM.
